For the assay, the system named is Aerobic Bacteria. The assay can be described thus: Disinfection of sugar liquor by ozonation, aerobic bacteria count. As for the experimental part:
In the laboratory, tests were performed on refinery liquors at Brix 66 to 70 and color between 60 and 300 Icumsa units (the color of sugar liquors is expressed in Icumsa units following the specific and standardized methodology well known in the sugar industry). A laboratory model generator was used to pass ozone into a batch reactor. The ozone generator was operating on a pure feed gas and it produced 40 g/h of ozone at 5% concentration. Two mixer reactors were used, the first one operating at 800 rpm under a pressure of 60 psig with 2L capacity and the second one operating at atmospheric pressure and 1200 rpm with 10 L capacity. A series of tests were carried out with different types of liquors and the treated sugar was characterized in terms of color, turbidity, pH, saccharose degradation, toxicity and disinfection. The following examples present results of experiments performed in different ozonation conditions with different types of liquors. A 184 Icumsa color units liquor was treated with 200 mg/L of ozone during 8 min using the pressurized reactor. A low color liquor, 64 Icumsa units was treated in the atmospheric pressure reactor under two different ozonation conditions. The following table presents the results of microbiological analyses.

SMILES strings stand for the structures.

As to `O=[O+][O-]` [ozone], the “reduction of number of total bacteria after ozonation” value (Example 6: 200 mg/L ozone, 8 min) was 95%. Where the note is “Example 7: 200 mg/l ozone”, this molecule had a reduction of bacteria of 89%. The disinfection result (Example 7: 400 mg/L of ozone) is listed as “complete disinfection”.
